For 93 compounds, pKa results are on record in the pKa sets of Baltruschat and Czodrowski (2020).

By pKa is commonly meant the pH at which an ionisable group is half protonated. `COc1ccc2[nH]c3c(c2c1)CCN=C3C`: the pKa was 14.5 (acidic group) and 9.21 (basic group).

`CCCn1nnnc1N` came in with a pKa (basic group) of 1.8.

Turning to `COc1ccc2c3c1O[C@@H]1C(=O)CC[C@]4(O)[C@H](C2)N(C)CC[C@@]314`, the pKa (basic group) was 8.6.

With `[O-]c1cnccn1`, the pKa (basic group) is 8.23.

Consider `CC(C)S(=O)(=O)n1c(N)nc2ccc(/C(=C/C(N)=O)c3cccc(F)c3)cc21`, for which the pKa (basic group) was 3.41.

Take `NCCC(=O)c1ccccc1`: where the note is “basic group”, the pKa came out at 8.3.

`COc1ccc(N)cc1CN`: the pKa (basic group) amounted to 9.77.

Where the note is “basic group”, `CC(N)CO` (stereo not given) displayed a pKa of 9.43.

As for `CC(C)[NH+](CCC(c1ccccc1)c1ccccn1)C(C)C` (stereo not given), the pKa (basic group) is 3.2.

For `O=[N+]([O-])c1ccc(NCO)cc1`, the pKa (basic group) is -0.33.

On to `O=C(O)C[N+](=O)[O-]`, for which, for the setting “acidic group”, the pKa is 1.63.

`O=C(O)Cc1cccc2ccccc12` had a pKa (acidic group) of 4.24.

In turn, `O=NCC(=O)c1cccnc1` had a pKa (acidic group) of 7.8.

With `Clc1cccc(-c2ccccn2)n1`, where the note is “basic group”, the pKa was 3.7.

`O=C(Cc1ccccc1Nc1c(Cl)cccc1Cl)OCCN1CCOCC1` returned a pKa (basic group) of 7.52.

Take `OC[C@H]1CCCN2CCCC[C@@H]12`: where the note is “basic group”, the pKa was 10.2.

Take `c1ccc(-c2cc(-c3ccccc3)c(NCCN3CCOCC3)nn2)cc1`: the pKa (basic group) is 6.81.

On to `CN(C)CCCNC(=O)/C=N/[O-]`, for which the pKa (basic group) was found to be 9.78.

Take `O=C1CCC(=O)N1O`: the pKa (acidic group) was 6.04.

Consider `N[C@@H]1CCC[C@@H]1O`, for which the pKa (basic group) is 9.7.

For the setting “acidic group”, `O=c1ccn([C@@H]2C[C@@H](O)[C@H](CO)O2)c(=O)[nH]1` returned a pKa of 9.3.

For `COc1cccc(CCC(=O)O)c1`, for the setting “acidic group”, the pKa stood at 4.65.

For the compound `CC1CCCCN1C` (stereo not given), for the setting “basic group”, the pKa stood at 10.3.

As to `CN(C)c1cccc2c(S(=O)(=O)NCC[NH+](C)C)cccc12`, the pKa was 8.33 (acidic group) and 3.57 (basic group).

In turn, `O=C1NC(=S)NC12CCCCC2` came in with a pKa (acidic group) of 8.79.

`CN(C)CCNCCN(C)C`: the pKa (basic group) was 9.59.

Take `Brc1c[nH]cn1`: the pKa (basic group) turned out to be 3.8.

In turn, `CCC(=O)C(CCN1CCOCC1)(c1ccccc1)c1ccccc1` had a pKa (basic group) of 6.98.

For `O=C1CCC(=O)C1`, the pKa (acidic group) came to 4.5.

`CC(C)C(O)C(C(=O)O)c1ccc(-c2ccccc2)cc1` (stereo not given): the pKa (acidic group) was 4.13.

`CC[C@H](C(=O)O)[C@@]1(O)C[C@H]2CC[C@@H]1C2` had a pKa (acidic group) of 4.07. This pKa and that of the compound before are within 0.2 log units of each other.

`Cc1cccc(NS(=O)(=O)c2ccccc2)c1`: the pKa (acidic group) worked out at 8.48.

`[O-]c1ccccc1CN1CCCCC1` displayed a pKa (basic group) of 11.

On to `c1ccc(CN(CC2=NCCN2)c2ccccc2)cc1`, for which the pKa (basic group) was 10.1.

Compound `COc1ccccc1-c1nnn[nH]1` yielded a pKa (acidic group) of 4.8.

As for `C/C(=C(/S)CCO)N(C=O)Cc1cnc(C)nc1N`, the pKa is, setting by setting: (acidic group) 11.4; (basic group) 4.19.

Regarding `CCC[n+]1cccc2c(O)cccc21`, under “acidic group”, the pKa was 6.06.

As to `CCCCNCc1ccccc1`, for the setting “basic group”, the pKa was found to be 9.46.

Consider `CC1=CC(C)=Nc2ccc(C)cc2N1`, for which the pKa is 5.8 (acidic group) and 3.5 (basic group).

`CC(O)CN(C)CCO` (stereo not given) had a pKa (basic group) of 8.69.

Consider `Cc1ccc(I)c(C(=O)O)c1`, for which, where the note is “acidic group”, the pKa turned out to be 2.95.

As for `CCn1c(=O)n(C)c2ccccc21`, the pKa (basic group) is -3.7.

Take `CNN`: the pKa (basic group) amounted to 7.87.

Regarding `CCNC(N)=O`, the pKa (basic group) is 1.19.

For `NCC(=O)NN`, the pKa (basic group) came out at 7.69.

Under “acidic group”, `O=C(O)/C=C/c1cccc(O)c1` yielded a pKa of 4.4.

Turning to `C=C(C)[C@H]1C[NH2+][C@H](C(=O)O)[C@H]1CC(=O)O`, the pKa (acidic group) worked out at 2.1.

On to `O=C(O)COc1ccc([N+](=O)[O-])cc1`, for which the pKa (acidic group) is 2.89.

Regarding `O=C(Cc1ccccc1)c1cc[n+]([CH-]c2cccc([N+](=O)[O-])c2)cc1`, the pKa (acidic group) was 11.6.

Turning to `Nc1cc(/C=C/c2ccccc2)nc2ccccc12`, for the setting “basic group”, the pKa is 9.3.

On to `CNS(=O)(=O)C(F)(F)F`, for which, for the setting “acidic group”, the pKa turned out to be 7.56.

The compound `Cc1cc(N)ccc1[N+](=O)[O-]` showed a pKa (basic group) of 1.64.

For the setting “basic group”, `O=C(CCl)CCl` had a pKa of 11.

As for `Cc1ccc2cccc(O)c2n1`, the pKa is, setting by setting: (acidic group) 10.1; (basic group) 5.63.

Under “acidic group”, `CCCCCC(=O)CC(C)=O` showed a pKa of 9.2.

`Nc1[nH]cc(O)[nH+]1` displayed a pKa (acidic group) of 4.8.

In the case of `N#CC(=C(O)O)c1ccccc1`, the pKa (acidic group) stood at 0.99.

In turn, `Cc1cccc([NH3+])c1C(=O)O` returned a pKa (acidic group) of 3.2.

Regarding `CC1(C)C=CC(C)(c2cc3ccc(=O)oc3cc2O)CC1` (stereo not given), the pKa (acidic group) worked out at 8.12.

With `O=C(O)Cc1c[nH]c2ccccc12`, under “acidic group”, the pKa was found to be 4.39.

`[NH3+]CC(=O)N1CCC[C@H]1C(=O)O` yielded a pKa (acidic group) of 2.95.

Under “acidic group”, `C[NH2+]C(C)(C)C(=O)O` showed a pKa of 2.2.

As for `Cc1cccc(N)c1C`, the pKa (basic group) was determined as 4.56.

As to `Cc1nn(C)c(N(C)C(=O)CN)c1C(=O)c1ccccc1F`, for the setting “basic group”, the pKa stood at 7.52.

For the setting “acidic group”, `C=C(C)[C@@H]1C[NH2+][C@H](C(=O)[O-])[C@@H]1CC(=O)O` displayed a pKa of 4.58.

As to `CCCc1nc2cc(OCC)ccc2[nH]1`, where the note is “basic group”, the pKa stood at 6.12.

In turn, `CCc1c(C)c[nH]c1C` registered a pKa (basic group) of 3.19.

On to `COc1ccc2c3c1O[C@H]1[C@@H](O)CC[C@H]4[C@@H](C2)N(C)CC[C@@]341`, for which the pKa (basic group) was determined as 8.71.

With `N#Cc1cc(-c2ccccc2)nnc1NCCN1CCOCC1`, under “basic group”, the pKa turned out to be 6.5.

The compound `Nc1cccc([NH3+])c1` displayed a pKa (basic group) of 2.46.

As for `C=C(C)/C=C(\C)O`, under “acidic group”, the pKa came out at 10.4.

Where the note is “basic group”, `c1ccc(Oc2ccncc2)cc1` came in with a pKa of 6.16.

As for `CC(C)/N=C/N(C)c1ccc(-c2c[nH]cn2)cc1`, for the setting “basic group”, the pKa was determined as 10.4.

`O/C(=C/c1cc[nH+]cc1)c1ccccc1`: the pKa (acidic group) stood at 4.19.

For `C[Si](C)(C)CCN`, where the note is “basic group”, the pKa turned out to be 11.

As for `Cc1cc(O)[nH+]c2c1CCO2`, the pKa (acidic group) is 2.42.

The compound `CC(CN1c2ccccc2Sc2ccccc21)N(C)C` (stereo not given) gave a pKa (basic group) of 8.65.

The compound `[NH3+][C@@H](Cc1c[nH]cn1)C(=O)NCC(=O)[O-]` displayed a pKa (basic group) of 5.8.

In turn, `O=c1cccc(O)cc1O` displayed a pKa (acidic group) of 5.76.

`c1ccc(-c2nc3ncncc3[nH]2)cc1` yielded a pKa (acidic group) of 8.09 and a pKa (basic group) of 2.68.

As to `CC[NH+](CC)Cc1c(O)c(Cl)cc(Cl)c1Cl`, the pKa (acidic group) stood at 5.13.

In turn, `CC(=S)Nc1ccc([N+](=O)[O-])cc1` came in with a pKa (acidic group) of 9.89.

Consider `NC(=O)CS(=O)(=O)NC(N)=O`, for which, for the setting “acidic group”, the pKa was found to be 5.05.

For the compound `C[C@H]1O[C@H](O[C@H]2CC[C@H]([n+]3ccc(N)nc3O)O[C@@H]2C)[C@H](O)[C@@H](O)[C@@H]1[NH+](C)C`, the pKa (acidic group) turned out to be 3.9.

Take `C/N=C(/NC)N(C)C`: the pKa (basic group) stood at 13.9.

The compound `CCCCOc1cccc(C(=O)O)c1` gave a pKa (acidic group) of 4.25.

Compound `CCCSS/C(CCO)=C(/C)N(C=O)Cc1cnc(C)nc1N` showed a pKa (basic group) of 5.52.

Regarding `CCCSC(=O)CCCc1c[nH]cn1`, the pKa (basic group) came to 7.55.

`O=c1[nH]c(=O)c2ncn([C@H]3O[C@@H](CO)[C@H](O)[C@@H]3O)c2[nH]1` returned a pKa (acidic group) of 5.72.

Under “acidic group”, `O=P1(O)CCCCC1` came in with a pKa of 2.73.

Take `O=c1cccccc1`: the pKa (basic group) is -0.82.

Turning to `O=[N+]([O-])c1cnc([O-])[nH+]c1[O-]`, under “basic group”, the pKa was 5.42.

Consider `COc1ccc(O)c(CN(C)C)c1`, for which the pKa was determined as 11.5 (acidic group) and 8.7 (basic group).
